These results are taken from patent US8445509B2, “Fused heterocyclic derivatives and use thereof” (Takeda Pharmaceutical Company Limited, priority 2008, dated 2013).

One test relates to MKN-45 cells. The experiment in a line: Antitumor test, MKN-45 transplanted nude mouse. It is filed as in vivo, nude mouse (BALB/c nu/nu). The note with it: orally, 14 consecutive days. Here is the method: (§1) Cancer cells were cultured in a culture medium containing 10% bovine fetal serum in an incubator at 37° C., 5% CO2. MKN-45 cells were treated with trypsin/EDTA and isolated. MKN-45 and MV-4-11 cells were washed with HBSS (HANK's Balanced Saline Solution). When MKN-45 cells were transplanted, they were adjusted with HBSS to a cell density of 1.2×10^8 cells/mL, and transplanted by subcutaneous injection of 0.05 mL of a mixed suspension (3×10^6 cells) of the cell suspension and the same amount of Matrigel into the abdomen of 6 or 7-week-old female nude mouse (BALB/c nu/nu, CLEA Japan, Inc.). When MV-4-11 cells were transplanted, they were adjusted with HESS to a cell density of 1.2×10^8 cells/mL, and transplanted by subcutaneous injection of 0.05 mL of a mixed suspension (3×10^6 cells) of the cell suspension and the same amount of Matrigel into the abdomen of 7-week-old female nude mouse (BALB/c nu/nu, CLEA Japan, Inc.). When the average tumor volume reached 100-250 mm^3, the mice were grouped, and various doses of test substance were orally administered for 14 consecutive days starting from the next day. The length of the major axis and the length of the minor axis of the tumor were measured over time and the tumor volume was calculated by tumor volume=major axis length×minor axis length×minor axis length×0.5. The ratio of an increase in the average tumor volume of the control group to an increase in the average tumor volume of the drug administration group was taken as the tumor growth rate (%) of the drug administration group. Table 5 showned MKN-45 tumor growth rate (%) and table 6 showned MV-4-11 tumor growth rate (%).

The test system of the next test is MV-4-11 cells. The experiment in a line: Antitumor test, MV-4-11 transplanted nude mouse. The test is classed as in vivo, nude mouse (BALB/c nu/nu). The note with it: MV-4-11, dose 2 mg/kg, orally, 14 consecutive days. The procedure: as §1
For test [1], the target named is T1, Tie2 intracellular domain protein (Homo sapiens, UniProt Q02763).
T1 construct: 50 ng/mL of Tie2 intracellular domain protein (Millipore); purchased Millipore
The experiment in a line: TIE2 kinase inhibitory activity (AlphaScreen). It is filed as biochemical. The procedure:
A test compound dissolved in dimethyl sulfoxide (DMSO) was diluted with a buffer (50 mM Tris-HCl (pH 7.5), 5 mM MgCl2, 5 mM MnCl2, 2 mM dithiothreitol, 0.01% Tween-20). A buffer (10 μL) containing 50 ng/mL of Tie2 intracellular domain protein (Millipore) and 250 ng/ml, of biotin labeled polypeptide biotinyl-poly-Glu:Tyr (4:1) (CIS bio International) was added to the compound solution (5 μL). At 5 min from the mixing of the kinase enzyme, the compound and the biotin labeled polypeptide, a buffer (10 μL) containing 5 μM ATP was added, and the mixture was reacted at 25° C. for 10 min. The reaction was quenched by the addition of 25 μL of a stop solution (100 mM EDTA disodium salt, 62.5 mM HEPES buffer (pH 7.4), 250 mM NaCl, 0.1% bovine serum albumin, 10 μg/ml AlphaScreen assay streptavidin donor beads (Streptavidin Donor beads: PerkinElmer), 10 μg/ml, AlphaScreen assay anti-phosphotyrosine recognition antibody PT-66 binding acceptor beads (Anti-phosphotyrosine (PT-66) Acceptor beads: PerkinElmer)). The reaction solution was allowed to stand at 25° C. for 16 hrs, and the […] were counted using a plate reader (Fusion™ (PerkinElmer)). The kinase inhibitory rate (%) of the test compound was calculated by the following formula: Inhibitory rate (%)=(1−(count of test compound−blank)÷(control−blank))×100
(§2) The count of the solution reacted without addition of the compound was used as a “control”, and the count of the solution without the compound and ATP was used as a “blank”.

The target in test [2] is T2, FLT3 intracellular domain protein (Homo sapiens, UniProt P36888).
T2 construct: 7.5 ng/ml of FLT3 intracellular domain protein (Millipore); purchased Millipore
T2 sequence (P36888 564-993 limits assumed): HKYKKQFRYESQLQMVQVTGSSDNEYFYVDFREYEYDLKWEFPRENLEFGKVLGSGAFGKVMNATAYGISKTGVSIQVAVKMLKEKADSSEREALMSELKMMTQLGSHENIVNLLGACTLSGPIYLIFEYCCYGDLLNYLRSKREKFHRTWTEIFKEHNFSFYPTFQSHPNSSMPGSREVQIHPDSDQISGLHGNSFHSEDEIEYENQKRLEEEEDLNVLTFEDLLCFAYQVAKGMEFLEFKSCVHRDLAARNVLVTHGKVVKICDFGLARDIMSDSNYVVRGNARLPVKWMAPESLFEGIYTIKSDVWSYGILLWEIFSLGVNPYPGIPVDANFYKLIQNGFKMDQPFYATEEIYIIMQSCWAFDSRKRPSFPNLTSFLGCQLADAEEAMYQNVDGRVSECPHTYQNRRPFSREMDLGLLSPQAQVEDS
The test is described as follows: Fms Like Tyrosine Kinase 3 (FLT3) kinase inhibitory activity (AlphaScreen). It is filed as biochemical. The procedure:
A test compound dissolved in dimethyl sulfoxide (DMSO) was diluted with a buffer (50 mM Tris-HCl (pH 7.5), 5 mM MgCl2, 5 mM MnCl2, 2 mM dithiothreitol, 0.01% Tween-20). To this compound solution (5 μL) was added a buffer (10 μL) containing 7.5 ng/ml of FLT3 intracellular domain protein (Millipore) and 250 ng/mL of biotin labeled polypeptide biotinyl-poly-Glu:Tyr (4:1) (CIS bio International). At 5 min after mixing kinase enzyme and the compound and biotin labeled polypeptide, to the obtained mixture was added a buffer (10 μL) containing ATP (5 μM), the mixture was allowed to react at 25° C. for 10 min and the reaction was quenched with 25 μL of a stop solution (100 mM EDTA disodium salt, 62.5 mM HEPES buffer (pH 7.4), 250 mM NaCl, 0.1% bovine serum albumin, 10 μg/mL AlphaScreen assay streptavidin donor beads (Streptavidin Donor Beads: PerkinElmer), 10 μg/mL AlphaScreen assay anti-phosphotyrosine recognition antibody Y-100 binding acceptor beads (Anti-phosphotyrosine (P-Tyr-100) Acceptor beads: PerkinElmer)). The reaction solution was allowed to stand at 25° C. for 16 hrs, and the wells were counted using a plate reader (Envision™ (PerkinElmer)). The kinase inhibitory rate (%) of the test compound was calculated by the following formula: Inhibitory rate (%)=(1−(count of test compound−blank)÷(control−blank))×100
as §2

Test [3] deals with Human umbilical vein-derived vascular endothelial cells (HUVEC). The experiment in a line: Vascular endothelial cell proliferation inhibitory test (VEGF-stimulated HUVEC). It is filed as cell-based. The note with it: 120 h, 5 days of culture with VEGF. Here is the method: Human umbilical vein-derived vascular endothelial cells (HUVEC purchased from KURABO […] LTD.) were cultured in an incubator at 37° C., 5% carbon dioxide in a vascular endothelial cell medium (Invitrogen) containing 3% bovine fetal serum and 2.5 ng/mL basic fibroblast growth factor. To be specific, HUVEC was suspended in a vascular endothelial cell medium containing the aforementioned 3% bovine fetal serum and plated on a 96 well flat bottom plate by 50 μL (3000 cells) each well. After culture overnight, various concentrations of the test substance and 120 ng/mL of vascular endothelial growth factor (VEGF) were dissolved in a vascular endothelial cell medium containing 3% bovine fetal serum and added to each well by 50 μL. After 5 days of culture, a Cell counting kit-8 reagent (DOJINDO LABORATORIES) was added to each well by 10 μL, and the mixture was reacted in an incubator at 37° C., 5% carbon dioxide for 2-3 hr. The absorbance at 450 nm was measured by a microtiter plate reader and the cell proliferation inhibitory activity was determined. Using the absorbance with addition of a test substance at each concentration and based on the nonlinear least-squares analysis using a logistic curve of SAS system NLIN procedure, the concentration of the test substance (IC50 value) necessary for showing 50% of the value obtained without addition of the test substance was calculated.

Test [4] has as its system Human blood cell cancer cell line MV-4-11. The test is described as follows: Human blood cell cancer cell line MV-4-11 growth inhibitory test. It is filed as cell-based. To be noted: MV4-11, 72 h, culture for 3 days. The procedure:
Human blood cell cancer cell line MV-4-11 (ATCC) was cultured in IMDM (Invitrogen) containing 10% bovine fetal serum in an incubator at 37° C., 5% CO2. MV-4-11 cells were treated with trypsin/EDTA and recovered. The cells were suspended in IMDM containing 10% bovine fetal serum, plated on a 96 well flat bottom plate at a cells density of 30,000 cells/50 μL per well. After culturing overnight, various concentrations of test substance were dissolved in IMDM containing 10% bovine fetal serum and added to each well by 50 μL. After culture for 3 days, a Cell counting kit-8 reagent (DOJINDO LABORATORIES) was added to each well by 10 μL, and reacted in an incubator at 37° C., 5% CO2 for 2-3 hr. After the reaction, the absorbance of each well at 450 nm was measured by a microtiter plate reader. The concentration of a test substance necessary for inhibiting the growth by 50% (IC50 value) was calculated using a cell proliferation rate with addition of the test substance at each concentration and according to the nonlinear regression analysis using GraphPad Prism [Sigmoidal dose response (variable slope)].

Test [5] deals with Human gastric cancer cell line MKN-45. The test is described as follows: Human gastric cancer cell line MKN-45 growth inhibitory test. It is filed as cell-based. The note with it: MKN-45, 72 h. Here is the method: Human gastric cancer cell line MKN-45 (RIKEN BioResource Center) was cultured in RPMI1640 (Invitrogen) containing 10% bovine fetal serum in a gas incubator at 37° C., 5% CO2. MKN-45 cells were treated with trypsin/EDTA and recovered. The cells were suspended in RPMI1640 containing 0.3% bovine fetal serum, plated on a 96 well flat bottom plate at a cells density of 3000 cells/50 μL per well. After culturing overnight, various concentrations of test substance were dissolved in RPMI1640 containing 0.3% bovine fetal serum and added to each well by 50 μL. After culture for 3 days, a Cell counting kit-8 reagent (DOJINDO LABORATORIES) was added to each well by 10 μL, and reacted in an incubator at 37° C., 5% CO2 for 2-3 hr. After the reaction, the absorbance of each well at 450 nm was measured by a microtiter plate reader. The concentration of a test substance necessary for inhibiting the growth by 50% (IC50 value) was calculated using a cell proliferation rate with addition of the test substance at each concentration and according to the nonlinear regression analysis using GraphPad Prism [Sigmoidal dose response (variable slope)]. The cell proliferation rate (%) with addition of a test substance at each concentration was calculated by the following formula. As a positive control (100% growth), dimethyl sulfoxide was added instead of a test substance. As a negative control (0% growth), the compound of Reference Example 136 (WO2005/030140, Entry 104), which is a known c-Met inhibitor, was added in large excess (10 μM) instead of a test substance.

T1 sequence (Q02763 770-1124 limits assumed): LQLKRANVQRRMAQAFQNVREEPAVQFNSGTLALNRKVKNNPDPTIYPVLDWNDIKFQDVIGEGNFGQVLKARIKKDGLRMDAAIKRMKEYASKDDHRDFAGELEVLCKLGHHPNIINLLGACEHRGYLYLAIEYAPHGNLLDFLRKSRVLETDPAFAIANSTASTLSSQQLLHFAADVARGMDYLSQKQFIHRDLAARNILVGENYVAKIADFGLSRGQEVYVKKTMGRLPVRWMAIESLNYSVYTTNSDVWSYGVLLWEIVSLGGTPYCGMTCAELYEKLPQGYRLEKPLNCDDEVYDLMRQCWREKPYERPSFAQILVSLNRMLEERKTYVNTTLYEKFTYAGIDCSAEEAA

`Cl.O=C(Nc1cn2cc(Oc3ccc(NC(=O)C4(C(=O)Nc5ccccc5)CC4)cc3F)ccc2n1)C1CC1` [Example 15, N-[4-({2-[(cyclopropylcarbonyl)amino]imidazo[1,2-a]pyridin-6-yl}oxy)-3-fluorophenyl]-N′-phenylcyclopropane-1,1-dicarboxamide hydrochloride]: the “tumor growth rate (%)” value in the test with MKN-45 cells (MKN-45, dose 2 mg/kg) is recorded as 85%; in the test on MV-4-11 cells it was 17%.
On to `Cc1ccc(C(=O)Nc2ccc(Oc3ccc4nc(NC(=O)C5CC5)cn4c3)cn2)[n+]([O-])c1-c1ccc(F)cc1.Cl.O` [Example 63, N-[5-({2-[(cyclopropylcarbonyl)amino]imidazo[1,2-a]pyridin-6-yl}oxy)pyridin-2-yl]-6-(4-fluorophenyl)-5-methylpyridine-2-carboxamide 1-oxide•hydrochloride•monohydrate], for which the “tumor growth rate (%)” value in the test with MKN-45 cells (MKN-45, dose 1 mg/kg) is listed as 24%; with MV-4-11 cells it was less than 0%.
For `Cc1ccc(C(=O)Nc2ccc(Oc3ccc4nc(NC(=O)C5CC5)cn4c3)c(F)c2)c(=O)n1-c1ccccc1` [Example 86, N-[4-({2-[(cyclopropylcarbonyl)amino]imidazo[1,2-a]pyridin-6-yl}oxy)-3-fluorophenyl]-6-methyl-2-oxo-1-phenyl-1,2-dihydropyridine-3-carboxamide acetate], the half-inhibitory concentration (IC50) was no more than 1000 nM in test [1]; no more than 1000 nM in test [2]; no more than 2000 nM in test [3]; no more than 1000 nM in test [4]; no more than 1000 nM in test [5] (read-out: IC50 value). Moreover, the inhibition at 1 µM is no less than 90% in test [4] (1 μM test substance, read-out: inhibitory rate (%) at 1 μM) and no less than 80% in test [5] (read-out: inhibitory rate (%) at 1 μM, 1 μM test substance, culture for 3 days).
Turning to `Cc1ccc(C(=O)Nc2ccc(Oc3ccc4nc(NC(=O)C5CC5)cn4c3)c(F)c2)c(=O)n1-c1ccccc1.Cc1ccc(S(=O)(=O)O)cc1` [Example 87, N-[4-({2-[(cyclopropylcarbonyl)amino]imidazo[1,2-a]pyridin-6-yl}oxy)-3-fluorophenyl]-6-methyl-2-oxo-1-phenyl-1,2-dihydropyridine-3-carboxamide p-toluenesulfonate], the “tumor growth rate (%)” value in the test on MKN-45 cells (MKN-45, dose 2 mg/kg) is reported as 17%; in the test on MV-4-11 cells, less than 0%.
Taken in the same sequence, the figures for `Cc1ccc(C(=O)Nc2ccc(Oc3ccc4nc(NC(=O)C5CC5)cn4c3)c(F)c2)c(=O)n1-c1ccccc1.Cl` [Example 88, N-[4-({2-[(cyclopropylcarbonyl)amino]imidazo[1,2-a]pyridin-6-yl}oxy)-3-fluorophenyl]-6-methyl-2-oxo-1-phenyl-1,2-dihydropyridine-3-carboxamide hydrochloride] were 17% and less than 0%.
